Like-named read-outs stand apart in the source and are kept apart here.
How the values were obtained:
[1] = mouse plasma, within 1 hour of incubation; cited from earlier work
[2] = rat plasma, within 1 hour of incubation; cited from earlier work
[3] = human plasma in vitro; cited from earlier work
[4] = system: chicken liver carboxylesterase; details: cited from earlier work
[5] = system: carboxylesterases; assay: General carboxylesterase inhibition; assay type: biochemical
Procedure: Carboxylesterase (CE) inhibition was determined by a spectroscopic assay using o-nitrophenyl acetate (o-NPA) as a substrate. Recombinant CEs produced from expression in Spodoptera frugiperda Sf9 insect cells via baculovirus were purified from serum-free culture media for the enzyme inhibition studies. Enzymes were incubated in 200 μl of 50 mM Hepes (pH 7.4) containing 3 mM o-NPA. Conversion of the o-NPA to nitrophenol was monitored by measuring the change in the absorbance at 420 nm. Absorbance readings were taken every 15 seconds for 2 minutes, and data transferred to a computer data spreadsheet. […] The final DMSO concentration was always 1% or less. […] The above procedure was then repeated using the same assay, with inhibitor concentrations ranging from 1 nM to 100 μM. Results were then transferred to Prism software (GraphPad Software, Inc., San Diego, Calif.) and Ki values determined using sigmoidal curve fits of the data. Routinely, all analyses were performed in duplicate, and Ki values determined using at least 8 inhibitor concentrations.

[6] = target: T1, human acetylcholinesterase (hAcChE) (Homo sapiens, UniProt P22303); assay: biochemical; assay type: biochemical; details: acetylthiocholine substrate; Table 5; read-out: Ki hAcChE
T1 construct: purchased Sigma Biochemicals (St. Louis, Mo.)
T1 sequence (P22303 32-614): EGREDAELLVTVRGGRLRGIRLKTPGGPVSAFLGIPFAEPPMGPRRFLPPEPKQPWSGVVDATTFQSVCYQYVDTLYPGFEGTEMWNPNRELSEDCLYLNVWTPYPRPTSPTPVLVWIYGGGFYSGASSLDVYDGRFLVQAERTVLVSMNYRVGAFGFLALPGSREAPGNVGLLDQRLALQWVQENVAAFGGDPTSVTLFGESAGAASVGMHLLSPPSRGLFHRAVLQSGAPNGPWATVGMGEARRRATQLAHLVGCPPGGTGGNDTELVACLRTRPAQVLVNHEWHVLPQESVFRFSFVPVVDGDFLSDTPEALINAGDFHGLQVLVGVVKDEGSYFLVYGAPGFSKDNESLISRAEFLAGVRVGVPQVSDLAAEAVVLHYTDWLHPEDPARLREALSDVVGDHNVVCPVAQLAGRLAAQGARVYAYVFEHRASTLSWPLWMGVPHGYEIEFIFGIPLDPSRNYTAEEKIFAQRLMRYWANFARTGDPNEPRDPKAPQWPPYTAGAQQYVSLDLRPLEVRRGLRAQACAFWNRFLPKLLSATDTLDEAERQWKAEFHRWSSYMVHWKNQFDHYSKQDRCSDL
Procedure: Data was transferred to GraphPad Prism software, and Ki values were calculated as described in the Example above.

[7] = target: T2, human small intestine carboxylesterase (hiCE) (Homo sapiens, UniProt O00748); assay: biochemical; assay type: biochemical; details: o-NPA as substrate; for Ki: Table 5, read-out: Ki hiCE; for Ki (hCE1)/Ki (hiCE): selectivity ratio
T2 sequence (O00748 27-559): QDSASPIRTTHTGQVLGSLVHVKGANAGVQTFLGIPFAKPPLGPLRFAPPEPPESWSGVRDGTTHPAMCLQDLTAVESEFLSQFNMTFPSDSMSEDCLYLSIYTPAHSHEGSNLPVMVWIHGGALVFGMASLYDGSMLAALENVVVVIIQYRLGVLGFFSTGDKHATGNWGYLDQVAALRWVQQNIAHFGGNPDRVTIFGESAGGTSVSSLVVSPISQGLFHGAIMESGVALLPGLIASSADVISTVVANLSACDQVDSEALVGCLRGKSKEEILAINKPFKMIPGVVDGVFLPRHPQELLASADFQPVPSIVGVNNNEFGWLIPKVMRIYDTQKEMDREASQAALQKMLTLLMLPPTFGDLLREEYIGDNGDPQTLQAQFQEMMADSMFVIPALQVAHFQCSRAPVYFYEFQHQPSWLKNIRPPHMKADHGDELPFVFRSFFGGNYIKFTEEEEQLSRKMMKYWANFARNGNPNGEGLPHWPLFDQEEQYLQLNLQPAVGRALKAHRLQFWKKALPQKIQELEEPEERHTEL

[8] = target: T3, human intestinal carboxylesterase in U373MGhiCE cells (Homo sapiens, UniProt O00748); assay: Inhibition of intracellular carboxylesterase in U373MGhiCE cells; assay type: cell-based
T3 construct: expressed in transfected cells; host or cells: U373MG human glioma cells (U373MGhiCE)
T3 sequence (O00748 27-559): T2 sequence (O00748 27-559)
Procedure: To monitor the ability of the compounds to cross the cell membrane and inhibit carboxylesterase activity intracellularly, an assay using human tumor cells expressing hiCE was devised. U373MGhiCE (a human glioma cell line transfected with a plasmid expressing hiCE) were plated in T25 flasks and allowed to grow to confluency (approximately 2-5×10^5 cells). Inhibitors were then added at a final concentration of […], and incubation allowed to continue for 1 hour. At this time, the cells were washed extensively with 5 ml of complete media and 2×5 ml of Hanks balanced salt solution, and cell extracts were prepared. Carboxylesterase activity was then determined using o-NPA as a substrate.
Table 8 sets forth the level of intracellular enzyme inhibition following incubation of human glioblastoma tumor cells expressing human intestinal carboxylesterase with 10 μM of each compound identified in Table 3.

[9] = target: T4, rabbit liver carboxylesterase (rCE) (Oryctolagus cuniculus, UniProt P12337); assay: biochemical; assay type: biochemical; details: o-NPA as substrate; Table 5; read-out: Ki rCE
T4 sequence (P12337 19-565): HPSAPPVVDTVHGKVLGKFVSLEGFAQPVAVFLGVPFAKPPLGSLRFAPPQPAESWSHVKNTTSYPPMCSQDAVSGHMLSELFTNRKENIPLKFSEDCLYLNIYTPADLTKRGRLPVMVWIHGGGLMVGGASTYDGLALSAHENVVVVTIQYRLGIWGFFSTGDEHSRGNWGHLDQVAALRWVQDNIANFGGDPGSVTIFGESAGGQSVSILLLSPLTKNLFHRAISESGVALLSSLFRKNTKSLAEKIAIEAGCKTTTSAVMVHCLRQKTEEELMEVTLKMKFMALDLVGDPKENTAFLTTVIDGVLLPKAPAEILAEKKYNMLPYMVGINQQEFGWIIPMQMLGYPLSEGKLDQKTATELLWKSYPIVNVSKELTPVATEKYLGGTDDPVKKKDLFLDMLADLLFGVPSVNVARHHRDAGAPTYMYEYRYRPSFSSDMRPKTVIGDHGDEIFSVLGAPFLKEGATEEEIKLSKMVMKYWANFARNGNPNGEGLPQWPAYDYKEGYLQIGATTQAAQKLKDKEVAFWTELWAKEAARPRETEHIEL

[10] = target: human butyrylcholinesterase (hBuChE) (Homo sapiens, UniProt P06276); assay: biochemical
Sequence of human butyrylcholinesterase (hBuChE) (P06276 29-602): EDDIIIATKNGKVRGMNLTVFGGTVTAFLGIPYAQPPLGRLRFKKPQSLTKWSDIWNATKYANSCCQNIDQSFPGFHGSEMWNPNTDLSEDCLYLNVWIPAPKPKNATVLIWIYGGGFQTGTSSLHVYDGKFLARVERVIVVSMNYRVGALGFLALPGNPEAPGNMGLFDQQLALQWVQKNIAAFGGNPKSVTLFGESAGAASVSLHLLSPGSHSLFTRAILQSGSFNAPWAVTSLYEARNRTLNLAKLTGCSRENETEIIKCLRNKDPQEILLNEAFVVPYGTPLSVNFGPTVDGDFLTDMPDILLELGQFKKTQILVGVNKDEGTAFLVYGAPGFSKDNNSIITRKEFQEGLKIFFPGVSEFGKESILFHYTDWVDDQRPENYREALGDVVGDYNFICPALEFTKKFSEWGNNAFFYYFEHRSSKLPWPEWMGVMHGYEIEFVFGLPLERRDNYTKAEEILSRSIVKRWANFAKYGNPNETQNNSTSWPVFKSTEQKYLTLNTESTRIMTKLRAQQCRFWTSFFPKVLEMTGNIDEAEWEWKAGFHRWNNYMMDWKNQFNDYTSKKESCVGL

[11] = target: T5, hiCE (Homo sapiens, UniProt O00748); assay: Inhibition of hiCE-mediated activation of CPT-11 (SN-38 by HPLC); assay type: biochemical
T5 sequence (O00748 27-559): T2 sequence (O00748 27-559)
Procedure: Since the sulphonamide compounds identified herein are competitive inhibitors of hiCE, their activity is dependant upon the substrate used. To access the ability of these compounds to inhibit the hiCE-mediated activation of CPT-11, Ki values were determined using CPT-11 as the substrate.
CPT-11 concentrations were fixed at […], and inhibitor concentrations varied from 1 nM to 10 μM. Following incubation for an hour at 37° C., the levels of SN-38 in the reaction mixture was determined by High Performance Liquid Chromatography (HPLC).

[12] = target: T6, human liver carboxylesterase (hCE1) (Homo sapiens, UniProt P23141); assay: biochemical; assay type: biochemical; details: o-NPA as substrate; Table 5; read-out: Ki hCE1
T6 sequence (P23141 18-567): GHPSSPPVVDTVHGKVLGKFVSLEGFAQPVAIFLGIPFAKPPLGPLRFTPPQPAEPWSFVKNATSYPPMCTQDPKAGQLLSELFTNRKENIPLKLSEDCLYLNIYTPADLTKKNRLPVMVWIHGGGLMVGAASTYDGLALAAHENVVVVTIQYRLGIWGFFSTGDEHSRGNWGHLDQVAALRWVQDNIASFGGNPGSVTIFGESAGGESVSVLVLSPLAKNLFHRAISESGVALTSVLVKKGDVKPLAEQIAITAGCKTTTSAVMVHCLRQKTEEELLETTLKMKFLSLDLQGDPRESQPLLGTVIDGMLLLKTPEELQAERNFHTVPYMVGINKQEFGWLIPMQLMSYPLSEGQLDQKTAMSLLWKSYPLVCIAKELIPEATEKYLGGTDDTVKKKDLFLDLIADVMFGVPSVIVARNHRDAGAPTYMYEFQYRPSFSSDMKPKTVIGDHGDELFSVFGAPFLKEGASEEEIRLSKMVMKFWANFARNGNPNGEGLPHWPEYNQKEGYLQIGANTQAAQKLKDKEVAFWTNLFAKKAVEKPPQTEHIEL

[13] = CPT-11 as substrate (100 μm), 1 hour at 37° C., read-out: Ki hiCE

For `CCc1c2c(nc3ccc(OC(=O)N4CCC(N5CCCCC5)CC4)cc13)-c1cc3c(c(=O)n1C2)COC(=O)[C@]3(O)CC` [CPT-11, 7-ethyl-10-[4-(1-piperidino)-1-piperidino]carbonyloxycamptothecin], the “drug converted to SN-38” value [1] is listed as “greater than 50%”, the “drug converted to SN-38” value [2] is listed as “greater than 50%” and the “level of activation of CPT-11 by plasma” value [3] is listed as “very low”.
For `O=C(C(=O)c1ccccc1)c1ccccc1` [Compound 2, Diphenylethane-1,2-dione], the “inhibition of chicken liver carboxylesterase” value [4] is listed as “inhibition” and the “found to be general carboxylesterase inhibitors” value [5] is listed as “general carboxylesterase inhibitors”.
For `O=S(=O)(Nc1ccc(NS(=O)(=O)c2ccc(Cl)cc2)c2ccccc12)c1ccc(Cl)cc1` [Compound 47, 4-chloro-N-(4-{[(4-chlorophenyl)sulfonyl]amino}-1-naphthyl)benzenesulfonamide], the Ki [6] was greater than 100 µM, the Ki [7] was 0.194 ± 0.023 µM and the “Ki (hCE1)/Ki (hiCE)” value [7] was greater than 500. The inhibition at 10 µM [8] was 9.2%, the Ki [9] was greater than 100 µM and the Ki [10] was greater than 100 µM. The Ki [11, 13] was greater than 100 µM and the Ki [12] was greater than 100 µM.
With `Cc1cc(C)c(S(=O)(=O)Nc2ccccc2)cc1S(=O)(=O)Nc1ccccc1` [Compound 48, 4,6-dimethyl-N,N′-diphenylbenzene-1,3-disulfonamide] the Ki [6] was greater than 100 µM, the Ki [7] was 0.218 ± 0.045 µM and the “Ki (hCE1)/Ki (hiCE)” value [7] was greater than 450. For the same molecule, the inhibition at 10 µM [8] was 8.9%, the Ki [9] was greater than 100 µM and the Ki [10] was greater than 100 µM. The Ki [11, 13] was greater than 100 µM and the Ki [12] was greater than 100 µM.
In the case of `Cc1cc(NS(=O)(=O)c2ccccc2)ccc1NS(=O)(=O)c1ccccc1` [Compound 49, N-{2-methyl-4-[(phenylsulfonyl)amino]phenyl}benzene sulfonamide], the Ki [6] is reported as greater than 100 µM, the Ki [7] is reported as 0.365 ± 0.087 µM and the “Ki (hCE1)/Ki (hiCE)” value [7] is reported as greater than 250. It also gave an inhibition at 10 µM [8] of 7.6%, a Ki [9] of 3.23 µM and a Ki [10] greater than 100 µM. The Ki [11] was 0.238 ± 0.029 µM and the Ki [12] was greater than 100 µM.
With `CS(=O)(=O)Nc1ccc(SSc2ccc(NS(C)(=O)=O)cc2)cc1` [Compound 50, N-[4-({4-[(methylsulfonyl)amino]phenyl}dithio)phenyl]methanesulfonamide] the Ki [6] was greater than 100 µM, the Ki [7] was 0.767 ± 0.285 µM and the “Ki (hCE1)/Ki (hiCE)” value [7] was greater than 125. It also gave an inhibition at 10 µM [8] of 14.6%, a Ki [9] of 0.739 ± 0.384 µM and a Ki [10] greater than 100 µM. For the same molecule, the Ki [11, 13] was greater than 100 µM and the Ki [12] was greater than 100 µM.
In the case of `O=S(=O)(Nc1ccc(NS(=O)(=O)c2ccccc2)cc1)c1ccccc1` [Compound 51, N-{4-[(phenylsulfonyl)amino]phenyl}benzene sulfonamide], the Ki [6] is reported as greater than 100 µM, the Ki [7] is reported as 1.06 µM and the “Ki (hCE1)/Ki (hiCE)” value [7] is reported as greater than 90. It also gave an inhibition at 10 µM [8] of 5.5%, a Ki [9] of 1.55 µM and a Ki [10] greater than 100 µM. It also gave a Ki [11, 13] of 0.892 ± 0.067 µM and a Ki [12] greater than 100 µM.
In the case of `CCOc1ccc(NS(=O)(=O)c2ccc(Cl)cc2)cc1` [Compound 52, 4-chloro-N-(4-ethoxyphenyl)benzenesulfonamide], the Ki [6] is reported as greater than 100 µM, the Ki [7] is reported as 1.31 µM and the “Ki (hCE1)/Ki (hiCE)” value [7] is reported as greater than 75. For the same molecule, the inhibition at 10 µM [8] was 9.6%, the Ki [9] was 2 µM and the Ki [10] was greater than 100 µM. It also gave a Ki [11] of 3.22 µM and a Ki [12] greater than 100 µM.
For `O=S(=O)(Nc1c(F)c(F)c(NS(=O)(=O)c2ccc(Cl)cc2)c(F)c1F)c1ccc(Cl)cc1` [Compound 59], the Ki [6] was greater than 100 µM, the Ki [7] was 0.0415 ± 0.0065 µM and the “Ki (hCE1)/Ki (hiCE)” value [7] was >2,400. For the same molecule, the inhibition at 10 µM [8] was 8.3%, the Ki [9] was 0.522 ± 0.144 µM and the Ki [10] was greater than 100 µM. The Ki [11] was 0.11 ± 0.023 µM and the Ki [12] was greater than 100 µM.

From patent publication US7973034B2, “Amide, aryl sulfonamide, aryl urea, and α,β-diketone derived carboxylesterase inhibitors, and their methods of use” (priority 2003, dated 2011)
